The series in a line: in vitro. The conditions noted are these: human, hela cells, % viability.

For orientation: viability means a read-out of living cells in per cent, often relative to untreated cells.

For the compound `CC1=CC(C)(C)N(CC(=O)c2ccc([N+](=O)[O-])cc2)c2c(C)cccc21` [CBK261652], the viability at 28.5 h, 10 µM stood at 103%.
Consider `O=C(c1ccc(-c2cnc3[nH]c(=O)n(CCc4cccnc4)c3n2)cc1)N1CCOCC1` [CBK064334], for which the viability at 28.5 h, 10 µM was 99.1%.
Regarding `O=C(NCO)c1ccccc1O` [CBK012717], the viability at 28.5 h, 10 µM was 93.9%.
The same measure, in the same setting: under `O=S(=O)(c1ccccc1)c1ccc(N2CCNCC2)cc1` [CBK018452] stands 97.8%; under `Cc1cc(OCC(O)CN2CCN(Cc3ccc4c(c3)OCO4)CC2)cc(C)c1Cl` (stereo not shown) [CBK074374], 93.4%; under `O=C(NCc1ccccc1)C1(c2ccccc2)CCCC1` [CBK149540], 111%.
Consider `CCOC(=O)C(NC(=O)c1cc[nH]c(=O)c1)c1cccc(C)c1C` (stereo not shown) [CBK304174], for which the viability at 28.5 h, 10 µM was found to be 97.1%.
As for `CC(C)(C)OC(=O)N1CCC2(CC1)OCc1cc(-c3cccc(OCc4ccc(Cl)c(Cl)c4)c3)ccc1O2` [CBK105230], under “bulk resorufin, single well”, the viability at 28.5 h, 10 µM turned out to be 86.6%.
Regarding `O[C@@H]1C[C@@H](c2nc(-c3ccc4c(c3)OCO4)no2)N(Cc2cc3ccccc3o2)C1` [CBK288868], the viability at 28.5 h, 10 µM was found to be 83.9%.
`CN(C)C(=O)c1cccc(S(=O)(=O)NCC2CCCO2)c1` (stereo not shown) [CBK304867]: the viability at 28.5 h, 10 µM came to 93.2%.
On the same count and under the same terms, under `Cc1n[nH]c(O)c1C(c1cccc([N+](=O)[O-])c1)c1c(C)n[nH]c1O` [CBK264753] stands 97.8%; under `Cc1ccc(-n2c(C)c([N+](=O)[O-])c3ccc(O)c(CN(C)C)c32)cc1` [CBK115328], 88.8%; under `O=[N+]([O-])c1ccc(O)c(/C=N/c2ccc3cc4ccc(/N=C/c5cc([N+](=O)[O-])ccc5O)cc4nc3c2)c1` [CBK261557], 57.4%.
On the same count and under the same terms, the result for `O=C(NC/C=C/c1cn(C2OC(CO)C(O)C2O)c(=O)[nH]c1=O)C(F)(F)F` (stereo not shown) [CBK201298] reads 104%.
On the same count and under the same terms, the result for `CC(=O)N1C[C@@H](N(C)C)[C@H](c2cn(C)c3ccccc23)C1` [CBK285007] reads 99.5%; that for `CC(=O)NC1(c2ccccc2F)CCN(c2ncc(-c3ccco3)c(-c3ccco3)n2)CC1` [CBK286428], 95.3%; that for `NC(=O)c1ccc(-n2ncc(-c3ccsc3)n2)cc1` [CBK112858], 98.4%.
As for `COc1cc(C=CC(=O)O)ccc1OCC(=O)N1CCN(CC(=O)NC(C)(C)C)CC1` [CBK296987], the viability at 28.5 h, 10 µM is 114%.
Still for that read-out and setting: under `Cn1nc(CC(=O)Nc2ccc(OC(=O)c3ccccc3)cc2)c2ccccc2c1=O` [CBK264057] stands 96%.
Turning to `Cc1cc(-c2cnc(N)nc2)cc(C2CCCN(S(=O)(=O)c3ccc(F)c(C)c3)C2)n1` (stereo not shown) [CBK285934], the viability at 28.5 h, 10 µM came to 105%.
Still for that read-out and setting: the result for `Cc1ccc(Sc2nccn3c(=O)[nH]nc23)c(C)c1` [CBK288055] reads 101%; that for `CCOC(=O)C1(C2CCCCC2)CCN(C(=O)C(c2ccccc2)c2ccccc2)CC1` [CBK136943], 106%.
Consider `CCn1c(CC2CCN(c3nc(C)cc(C)c3C#N)CC2)nn(C)c1=O` [CBK307027], for which the viability at 28.5 h, 10 µM was 111%.
With `COc1ccc2c(c1)c(CN1CCCN(S(=O)(=O)c3ccc(-c4ccccc4)cc3)CC1)cn2C` [CBK063125], the viability at 28.5 h, 10 µM came to 104%.
Consider `COC(=O)c1cccc(CN2CCC3(CC2)OCCc2c3[nH]c3ccc(F)cc23)c1` [CBK040326], for which the viability at 28.5 h, 10 µM came to 100%.
The same measure, in the same setting: the result for `COc1cc(CNC(=O)N(CCC#N)C2CCCCC2)cc(OC)c1OC` [CBK156359] reads 98.1%; that for `Cn1ccnc1CN1CCNC(=O)C1c1ccccc1C(F)(F)F` (stereo not shown) [CBK306415], 85.1%.
Same read-out and setting: under `COc1cc(OC)cc(C(=O)OCc2ccc(F)cc2)c1` [CBK267996] stands 95.6%; under `O=C(NCc1ccc(F)cc1)c1ncoc1-c1cccs1` [CBK283976], 91.7%; under `FC(F)(F)c1cccc(-c2nccnc2NCc2cccs2)c1` [CBK037298], 105%.
For `CN1CCC(N2CCN(C(=O)NCc3ccc(Cl)c(Cl)c3)CC2)CC1` [CBK155883], the viability at 28.5 h, 10 µM was found to be 92.5%.
As for `Cc1ccccc1NC(=O)CC1c2ccccc2CC(C)(C)N1C` (stereo not shown) [CBK262567], the viability at 28.5 h, 10 µM was 87.4%.
Turning to `OCCN(CCO)c1cncc(-c2ccc(F)c(Cl)c2)n1` [CBK066015], the viability at 28.5 h, 10 µM turned out to be 96.3%.
Take `O=C(c1ccco1)N1CCN(c2ncnc3scc(-c4cccs4)c23)CC1` [CBK267208]: the viability at 28.5 h, 10 µM stood at 110%.
In the case of `Cn1nccc1CN1CCCC(Cc2nc3ccccc3[nH]2)C1` (stereo not shown) [CBK281892], the viability at 28.5 h, 10 µM stood at 98.2%.
On to `Cc1ccc2nc(CNC(=O)CN(C)C3CCNCC3)cn2c1` [CBK307228], for which the viability at 28.5 h, 10 µM is 96.6%.
For `c1ccc(CNc2cccc(N3CCNCC3)n2)cc1` [CBK003176T], the viability at 28.5 h, 10 µM turned out to be 92%.
On the same count and under the same terms, the result for `COCC(=O)Nc1nc2c(s1)C[C@]1(C)CC[C@@H]3[C@H](OC(=O)[C@H]3C)[C@H]1[C@@H]2C` [CBK289430] reads 105%; that for `COc1ccc([C@@]23CC[C@@H](NC(=O)Nc4cccc(SC)c4)C[C@@H]2N(C)CC3)cc1OC` [CBK036459T], 91.1%; that for `CN(C)c1nc(N2CCOCC2)c(C#N)c(=O)o1` [CBK007447], 116%.
The same measure, in the same setting: the result for `COC(=O)c1ccc(NS(=O)(=O)c2cc(Cl)sc2Cl)cc1` [CBK028684] reads 107%.
`COc1ccc(-n2ncc3c2CCCN(C(=O)C2CCCC2)C3)cc1` [CBK284501]: the viability at 28.5 h, 10 µM is 78%.
The same measure, in the same setting: the result for `COc1ccc(CCC(=O)N2CCCC2c2cc(Nc3nccs3)cc(C)n2)cc1` (stereo not shown) [CBK285939] reads 90%.
As for `COC(=O)c1cccc2c1CCCN2Cc1nnc(C2CC2)o1` [CBK304868], the viability at 28.5 h, 10 µM stood at 90.2%.
On the same count and under the same terms, under `CC1CCCC(C)N1S(=O)(=O)c1ccc(NS(=O)(=O)c2cccc(C(=O)O)c2)cc1` (stereo not shown) [CBK296944] stands 94.6%.
Same read-out and setting: under `O=S(=O)(Nc1cccc2cc[nH]c12)c1ccc(F)cc1F` [CBK153586] stands 85.3%.
`O=C(Nc1nn[nH]n1)C1CCCCC1` [CBK027955]: the viability at 28.5 h, 10 µM was 112%.
For the compound `Cc1cccn2cc(CCNC(=O)N[C@H](C)C(=O)N(C)C)nc12` [CBK304617], the viability at 28.5 h, 10 µM came to 110%.
For `O=C1CCCN1c1ccc(S(=O)(=O)N(c2ccccc2)C2CCNCC2)cc1` [CBK165122T], the viability at 28.5 h, 10 µM amounted to 109%.
For `O=C(c1ccoc1)N1CCC2(CCCN(Cc3ccc(OC(F)(F)F)cc3)C2)C1` (stereo not shown) [CBK132801], the viability at 28.5 h, 10 µM amounted to 114%.
Still for that read-out and setting: under `O=S(=O)(c1ccccc1)N(CC(F)(F)F)c1ccc(C(O)(C(F)(F)F)C(F)(F)F)cc1` [CBK024768] stands 121%; under `Cc1ccccc1C(NC(=O)C1CCN(C(=O)c2ccccc2)CC1)c1ccccn1` (stereo not shown) [CBK059720], 94.5%.
Same read-out and setting: the result for `O=C(O)c1ccc(CSc2nc3ccccc3[nH]2)cc1` [CBK286892] reads 82%; that for `CCn1cc(S(=O)(=O)Nc2cc(C)on2)cn1` [CBK270302], 84.3%; that for `CCN1C(=O)S/C(=C/c2ccc(OCc3cccc(C(=O)O)c3)cc2)C1=O` [CBK265605], 106%.

The record behind these values is PMC12040169 (PLOS Biology, 2025).
